In patent EP0143109A1, “Pranoprofen gelled ointment” (priority 1983, dated 1985):

Columns and labels:
[1] = rat, in vivo
[2] = Percutaneous absorption and excretion (Experiment 8); conditions: after removing the unabsorbed ointment 6 hours after application

Compound: CC(C(=O)O)c1ccc2c(c1)Cc1cccnc1O2 (centres unmarked) [pranoprofen, Pranoprofen]
- excretion route [1]: excreted mainly into urine and feces
- half-life of blood level [2]: about 5 hours
